Experimental data: patent US10617656B2, “Methods of increasing the cytotoxicity of chemotherapeutic agents with multisubstrate inhibitors of histone, protein-Lys, polyamine acetylation, and polyamine metabolism” (Vanderbilt University, priority 2010, dated 2020)

What was measured:
H358 lung cancer cells [1] = test: [3H]-thymidine incorporation (DNA synthesis) assay in H358 cells; format: cell-based
Experimental: (§1) (A) Structures of 1a, and the acetylated side chain of a lysine residue within the polypeptide chain of a protein targeted by the acetylating enzyme (R1 and R2 are the main chain elements on both sides of the lysyl residue). (B) [^3H]-thymidine incorporation into DNA of H358 cells pulsed for 6 hrs at three different time points after the addition of increasing concentrations of 1a, i.e., at 6-12 hrs (12 hr curve), at 18-24 hours (24 hr curve), or at 42-48 hrs (48 hr curve). Incorporation is represented as a percentage relative to control (untreated) cells. (C) Cell cycle analysis of propidium iodide-stained cells harvested at various times after addition of 50 μM 1a. % of cells in G1, S, and G2 represents the average of two independent profiles. (D) Western analysis of histone H3 lysine 9 acetylation, histone H3 lysine 56 acetylation, histone H3 lysine 9 methylation, and total histone H3, before “c” or at the indicated times after addition of 50 μM 1a. Each lane represents 60 μg cellular protein.
(§2) Control cells were left untreated. […] Control cells were left untreated.
Cells were either labeled immediately before treatment (starting DNA synthesis rate), or subjected to the indicated treatments and then pulsed on successive days until day 4. DNA synthesis is represented as the percent of starting DNA synthesis rate. Viability was determined for each treatment condition 24 hours post-start of treatment by the trypan blue exclusion assay, with percentages of viable cells indicated to the right of the graph.
H358 cells (2,000/well) in 96-well plates were treated with 1, 10 or 50 μM of spd-1a, spd-2a, spd-3a, spm3, or spm2 for 12 hours. Triplicate wells of cells were pulsed 6 hours with 0.5 μCi [^3H]-thymidine (NEN, Boston Mass.) post-start of drug treatment, and harvested onto filter paper using a Brandel Harvester and subjected to scintillation counting. Untreated cells were pulsed from 0-6 hrs to establish the initial rate of incorporation.
Cells were plated in 96-well plates (2000 cells per well to insure conditions for exponential growth for untreated cells over the time course of the experiment) and exposed to the following treatments: 1a (50 μM); camptothecin (Sigma, St Louis, Mo. 5 nM, 18 hours); cisplatin (Platinol, obtained through local pharmacies, 2 μM, 1 hour 15 minutes), 5-fluorouracil (5FU, Adrucil™, obtained through local pharmacies, 2 μM, 1 hour 15 minutes), Taxotere (provided by the late Dr. Pierre Potier, 5 nM, 18 hours). UVC treatment (40 J/m^2) using a Stratalinker™, Stratagene, La Jolla, Calif.) was carried using medium lacking phenol red. At 0-6 hr, 18-24 hr (day 1), 42-48 hr […], 66-72 hr (day 3), and 90-96 hr (day 4) post-start of treatment, triplicate wells were incubated with 0.5 μCi [^3H]-thymidine (NEN, Boston Mass.), harvested onto filter paper, and subjected to scintillation counting. Trypan blue exclusion assays for cell membrane integrity were carried out as known in the art.
The present inventors used 96-well viability assays as described in Saadatmandi et al (Cancer Gene Therapy (2002) 9:[…]) to examine the effect of 1a on DNA synthesis in H358 cells, as well as the combined effects of 1a and chemotherapeutic agents. H358 cells were plated in 96-well plates at 3000 cells per well. […]

[2] = system: histone H3 lysine 9 acetylation in H358 cells; test: Western analysis of histone H3 acetylation/methylation in H358 cells; format: cell-based; conditions: 50 μM, 12 hours
Experimental: as §1
Each lane represents 175 μg cell lysate protein.
One 6 cm culture dish of H358 cells per treatment was used. Cells were treated with 50 μM spm-2, spm-3, or spd-3a for 12 hours. Histones were extracted from cells in 0.2M H2SO4 (as described in Furuta, T., et al (2003) J. Biol. Chem. 278: 20303-20312), followed by SDS-PAGE and Western blotting. Blots were probed with anti-acetyl histone H3-lysine 9 (Upstate Biotechnology, Inc.)
Cells were lysed by adding 1 mL of 0.2 M H2SO4. […]
One 10-cm plate of H358 lung cancer cells (about 2×10^6 cells), grown in DMEM+10% Fetal bovine serum as described in reference, were treated for 24 hours with 50 μM 1a inhibitor. […] Treated cells and untreated (control) cells were harvested by lysing in buffer containing 10 mM Hepes pH 7.5, 100 mM NaCl, 300 mM sucrose, 3 mM MgCl2, 1 mM EDTA, 1 mM DTT, 0.5% Triton X-100, 1 mM PMSF, protease inhibitor pellet (Roche) and analyzed on 10% SDS-PAGE gels, followed by Western immunoblot analysis of total histone H3, methylated histone H3 (methylated on lysine 9), and acetylated histone H3 (acetylated on lysine 9). […]

H358 lung cancer cells [3] = format: cell-based; conditions: CPT 5 nM 18 hours + 3a
Experimental: as §2
Cells were given fresh inhibitor on the first, second, and third days of treatment and viability was measured on the 4th day (i.e. 3 days post start of treatment). […]
(A) Structure of Spd-3a. (B) Western analysis of histone H3K9-acetylation and total histone H3, measured in control, untreated H358 lung cancer cells “C” or in H358 cells incubated 12 hours in the presence of 50 μM Spd-2a or Spd-3a. Each lane represents 60 μg cellular protein. (C) [3H]-thymidine incorporation (counts per minute) into DNA of H358 cells during a 6 hour pulse beginning at 42 hours post-start of treatment. Treatments were as follows (bars 1-6 left to right): (1) control: no treatment; (2) CPT alone: 5 nM 18 hours; (3) 3a alone: 50 μM; (4-6) 3a+CPT: CPT (5 nm, 18 hours)+3a at indicated dose. After 18 hours, CPT was removed and medium was replaced with fresh medium containing Spd-3a at the indicated dose. Each bar represents the average of triplicates. (D) 3-day 96-well viability assay of H358 cells grown in the presence of increasing amounts of Spd-2a or Spd-3a, with or without CPT (5 nM 18 hours). […] Each data point represents the average of three wells.
Date of exp: Jul. […] Date of exp: Sep.
(§3) Cells were plated in 96-well plates at 2000 cells per well and treated with the indicated doses of spd-3a. Cell viability was measured by the MTS assay 3 days later.
DLD-1 cells or H358 cells were plated in 96-well plates at 2000 cells per well and treated with the indicated doses of (A) spm-3 or (B) spm-2. (C) Cell viability was measured by the MTS assay 3 days later. Similar experiment using GT41 fibroblasts with spm2 or spm 3. Each assay point represents an average of duplicates. […]

[4] = In vivo toxicity in nude mice (tail vein injection); conditions: 100 μl of 5 mM, approximately 10 mg/kg, twice per week for 3 weeks, 4 mice
Experimental: They injected a second set of 4 mice with 100 μl of spd-3a (5 mM, approximately 10 mg/kg, or about 0.25 mM initial blood concentration), twice per week for 3 weeks.

[5] = 96-well MTS viability assay, GT41F fibroblasts; format: cell-based, human; conditions: human, GT41F skin fibroblasts, spd-3a 1 μM, single agent, read-out: viability retained
Experimental: as §3
DLD-1 cells or H358 cells were plated in 96-well plates at 2000 cells per well and treated with the indicated doses of (A) spm-3 or (B) spm-2. (C) Cell viability was measured by the MTS assay 3 days later. Similar experiment using GT41 fibroblasts with spm2 or spm 3. Each assay point represents an average of duplicates.

[6] = system: endogenous HATs associated with solubilized chromatin; conditions: Parello et al. 1990; cited from earlier work
MCF7 breast cancer cells = conditions: 72 hr assay; DFMO 100 μM, 5FU 2 μM, doxorubicin 100 nM
Experimental: Viability was measured 3 days after the start of treatment and is expressed as a percentage of control (untreated) cell viability.
Each point is average of triplicates. […]
The present inventors carried out 96-well viability assays as we have previously described (Saadatmandi et al, Cancer Gene Therapy (2002) 9:830-9), in which MCF7 breast cancer cells were plated at 3000 cells per well. After overnight attachment, triplicate wells were treated with increasing doses of inhibitor 1a. Control wells were left untreated. After 3 days, cell viability was measured by the MTS assay, which measures the bioconversion of an uncolored substrate to a colored formazan derivative, and is proportional to cell number.

DLD-1 colon cancer = test: Nude mouse subcutaneous DLD-1 tumor model; format: in vivo; conditions: DFMO only, intratumoral 2 mg/kg
Experimental: Tumors were initiated By subcutaneous implantation of […] DLD-1 colon cancer cells. […] Tumors were measured and volumes calculated as in FIG. 14.
Tumors were initiated by injecting 10^6 DLD-1 cells (from ATCC) per mouse (female nude mouse, 4-5 weeks, Harlan Labs) subcutaneously in the flank. (A) When the average tumor size reached 26 mm^3, animals were randomized into 2 groups (3 per group). One group was left untreated and served as the control (-●-). […] Tumors were measured bidirectionally at 2-3 day intervals and tumor volumes were calculated (v=½ L×w^2). A paired t-test was used to evaluate the significance of the differences between the two groups of animals. […] (B) Tumors were initiated as in part (A). When tumors reached an average size of about 30 mm^3, animals were randomized into three groups of 2 animals each. The control group (-●-) received no treatment. The DFMO group (-▪-) received intratumoral injections of DFMO (2 mg/kg) on days 1, 7, 9 (5 PM), and 2, 8, 10 (9 AM, 5 PM). […] Tumors were measured and volumes calculated as in part (A). A paired t-test was used to evaluate the significance of the difference between the curves.

[7] = system: MDA MB-435 breast cancer cells; test: 72 hr viability assay, MDA MB-435; format: cell-based; conditions: 72 hr assay; DFMO 100 μM, 5FU 2 μM, doxorubicin 100 nM

Row | SMILES | inhibition of DNA synthesis (H358 lung cancer cells [1]; 1, 10 or 50 μM, 12 hours) | suppression of DNA synthesis in combination with camptothecin (H358 lung cancer cells [1]; CPT 5 nM 18 hours + 3a, pulse at 42 hours) | histone H3K9 acetylation (Western) [2] | histone H3K9 acetylation (Western) ([2]; listed as spd-3a) | suppression of 3-day cell viability in combination with camptothecin (H358 lung cancer cells [3]) | signs of toxicity [4] | viability at 3 days, 1 µM [5] | inhibitory effect on endogenous HATs, compared with Spd-2a [6] | effect as single agent on viability (MCF7 breast cancer cells) | difference between control and treated tumor curves (DLD-1 colon cancer) | effect as single agent on viability [7]
1 | CC(=O)NCCSCC(=O)NCCCNCCCCN [3a] | inhibit DNA synthesis | effective | nearly complete ablation | suppress histone acetylation | effective | no signs of distress or illness | ~60% | lower inhibitory effect than Spd-2a | – | – | –
2 | NCCC[C@](N)(C(=O)O)C(F)F [DFMO, α-difluoromethylornithine] | – | – | – | – | – | – | – | – | ineffective | not significant | ineffective
